Data on six compounds can be found in PMC9645390, “Amphiphilic stilbene derivatives attenuate the neurotoxicity of soluble Aβ42 oligomers by controlling their interactions with cell membranes” (Chemical Science, 2022).

By logD is commonly meant lipophilicity at a set pH, counting ionised and neutral species. High values mean higher lipophilicity, low ones lower lipophilicity. As a reminder, the Kd is a measure of binding affinity in units of concentration.

Series [1] is described as follows: Log D by octanol-PBS partition assay. Format: physicochemical. The settings on record: pH 7.4, fluorescence readout. On the procedure: In order to confirm that the compounds can also bind to native Aβ species, brain sections collected from 9-month-old 5xFAD transgenic mice have been employed in the fluorescence imaging studies. […] The brain sections were first incubated with our compounds, followed by Congo Red (CR), which is a well-established fluorescent probe that can bind to Aβ plaques.[34] The treated brain sections were then imaged using fluorescence microscope. […] Immunostaining with the CF594-conjugated HJ 3.4 antibody (CF594-HJ3.4) was also performed to confirm that these six compounds can bind to Aβ species specifically in the brain sections (Fig. 5). Moreover, the log D values of the compounds were also measured by octanol-PBS partition assays.[35] […]
The Log D value was measured following a published procedure using slight modifications.4 In general, compounds in 0.5 mL octanol was subjected to partition with 0.5 mL octanol-saturated
PBS. The whole mixture was stirred vigorously for 5 min, and centrifuged at 2,000 rpm for 5 min.
The top octanol layer was separated for later fluorescence measurement. The remaining PBS layer was partitioned with 0.5 mL PBS-saturated octanol, and the second top octanol layer was then separated after vigorous stirring and centrifuging at 2,000 rpm for another 5 min. The two octanol layers’ fluorescence spectra were recorded. The log D value was calculated by the fluorescence intensity ratio at the compounds’ emission wavelength for the above two octanol extractions. […]

Series [2] deals with SH-SY5Y cells. Kind of series: Cell toxicity studies in SH-SY5Y cells. The series is classed as cell-based, human. The settings on record: 10 µM. An excerpt: Encouraged by the ability of the developed amphiphilic compounds to attenuate the neurotoxicity of Cu–Aβ species, we sought out to study the possible molecular mechanisms for this beneficial effect. The Aβ oligomers were reported to interact with cell membranes in various ways, such as binding to receptors on cell membranes,[49,50] inserting into membranes,[51] or even showing cellular uptake via endocytosis.[52] The abnormal interactions between Aβ oligomers and neuron cells, which could disrupt the neuronal ion homeostasis and neuron cell membrane integrity, might be why Aβ oligomers are highly neurotoxic.[53–55] Moreover, molecules that can disrupt interactions between oligomers and cell membranes are promising candidates for drug development.[56,57] Thus, we proceeded to probe the interactions of the Aβ42 oligomers with SH-SY5Y cellular membranes, in the absence and presence of the compounds, via confocal microscopy. […] Moreover, a lower concentration of Aβ42 (5 μM) or Aβ42–Cu (5 μM) were chosen to avoid significant cell death (Fig. S9b ^†). Before investigating the neuroprotective effect of our compounds, we have also confirmed that Aβ aggregates interact tightly with the cell membranes, as shown via co-staining with a membrane specific dye (Fig. S10 ^†). Subsequently, SH-SY5Y cells were treated with Aβ oligomers or a combination of Aβ oligomers and compounds for 24 h, followed by the immunofluorescence staining with the CF594-labeled anti-Aβ antibody HJ 3.4 (Fig. 10) and nuclei staining, shown in the red and blue channels, respectively. Compared to the untreated group, the Aβ oligomers were found mainly bound to cell membranes. […] To understand this unusual behavior, we posited that the Aβ oligomers would start the fibrilization process when incubated in the cell media. […] Therefore, we proceeded to probe if our compounds could prevent the binding of Aβ fibrils to cell membranes. […] Given these encouraging results, we moved to study if the amphiphilic compounds can further control the interactions between Cu–Aβ species and cell membranes. Firstly, when SH-SY5Y cells were treated with Aβ monomers for 48 h, the aggregated Aβ species interacting with cell membranes were observed (Fig. 11a). […] However, these aggregates are still smaller than the insoluble fibrils (Fig. S11 ^†), indicating they are still soluble oligomeric Aβ species.
11. Cell toxicity studies in SH-SY5Y cells
Figure S9. Cell toxicity studies in SH-SY5Y cells. a) [ZY- 12-MT] = [ZY-15-OMe] = [ZY-15-MT] = [ZY-5-OMe] =
10 µM. b) Average cell numbers in presence of 5 µM Aβ42 monomer, 5 µM (Aβ42 monomer + Cu2+), 5 µM (Aβ42
monomer + Cu2+ + ZY-15-MT) and 5 µM (Aβ42 monomer + Cu2+ + ZY-15-OMe).
(1 picture or pasted object on this page, not shown here)

Series [3] has as its target T1, Aβ42 fibrils (Homo sapiens, UniProt P05067).
T1 construct: 1 mg of commercial Aβ42 monomer powder (from GL biochem) was dissolved in 1; purchased GL biochem
Briefly: Fluorescence saturation binding assay with Aβ42 fibrils. The settings on record: Aβ42 fibrils; for Kd: 10 mM PBS pH 7.4, one site-specific binding model, read-out: Kd, Fibrils; for binding ratio, Fibrils: from cross point between plateau and initial slope. The method, then:
(§1) Fig. 3 Binding constant measurements of ZY-5-OMe (left), ZY-5-MT (middle), ZY-5-DT (right) with Aβ42 fibrils (top), and oligomers (bottom). The measurements were performed in 10 mM phosphate buffered saline (PBS), pH 7.4. The Kd curves were fitted in GraphPad Prism with one site-specific binding model. Equation: Y = Bmax × X/(Kd + X). [Aβ42 fibrils] = [Aβ42 oligomers] = 5 μM.
(§2) Preparation of the Aβ42 Fibrils and Aβ42 Oligomers
(§3) Aβ42 fibrils: 1 mg of commercial Aβ42 monomer powder (from GL biochem) was dissolved in 1
(§4) mL 1,1,1,3,3,3-hexafluoro-2-propanol (HFIP) at room temperature and incubated for 1h. The
(§5) resulting solution was divided equally into two Eppendorf tubes. The solution in each Eppendorf
(§6) tube containing 0.5 mg Aβ42 monomer was then evaporated overnight and dried by vacuum
(§7) centrifuge to generate monomeric films. 100 μM Aβ42 fibrils solution was prepared by dissolving
(§8) the 0.5 mg monomeric films in 1.1 mL PBS buffer (with final DMSO concentration less than 1%)
(§9) and stiring at 37 °C for 3 days.
(§10) Aβ42 oligomers: The 0.5 mg monomeric films were dissolved in 1.1 mL PBS buffer (with final
(§11) DMSO concentration less than 1%) and incubated at 4 °C overnight. The resulting solution was
(§12) then centrifuged at 3000 rpm for 15 mins to remove the insoluble aggregates. The clear supernatant
(§13) was then used for the following experiments. […]
(§14) In Vitro Saturation Binding Studies with Aβ42 Fibrils and Aβ42 Oligomers
(§15) To a solution of increasing concentrations of compounds, a fixed concentration of the generated
(§16) aggregated Aβ42 fibrils or Aβ42 oligomers solutions (5 to 15 μM) was added to yield a total volume
(§17) of 100 μL. Nonspecific binding was determined without compounds. The mixture was incubated
(§18) for 15 min at room temperature. All fluorescence data were obtained on a SpectraMax M2e plate
(§19) reader (Molecular Devices).

Series [4] addresses T2, Aβ42 oligomers (Homo sapiens, UniProt P05067).
T2 construct: 1 mg of commercial Aβ42 monomer powder (from GL biochem) was dissolved in 1; purchased GL biochem
Briefly: Fluorescence saturation binding assay with Aβ42 oligomers. The settings on record: for Kd / binding ratio, Oligomers: Aβ42 oligomers; for Kd: 10 mM PBS pH 7.4, one site-specific binding model; for binding ratio, Oligomers: from cross point between plateau and initial slope; for binding preference oligomers vs fibrils (from Kd values): lower Kd for Aβ oligomers than Aβ fibrils. On the procedure:
as §1, §2, §3, §4, §5, §6, §7, §8, §9, §10, §11, §12, §13, §14, §15, §16, §17, §18, §19

T2 sequence (P05067 672-713 limits assumed): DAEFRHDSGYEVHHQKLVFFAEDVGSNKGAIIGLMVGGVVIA
T1 sequence (P05067 672-713 limits assumed): as above

Consider `COc1cc(/C=C/c2ccc(-c3ccc(C=O)cc3)s2)cc(CN2CCN(C)CCN(C)CC2)c1O` [ZY-15-OMe], for which the logD in series [1] came out at 1.053 ± 0.002. For the same compound, in series [2], the “toxicity towards SH-SY5Y cells (in words)” value was “not toxic towards SH-SY5Y cells”. Besides, in series [3], the Kd was 1240 nM and the “binding ratio, Fibrils” value was 3.0. In series [4], the Kd is 470 nM; the “binding ratio, Oligomers” value was 8.1; the “binding preference oligomers vs fibrils (from Kd values)” value (“binding preference oligomers vs fibrils” below) was “higher binding affinity to oligomers over fibrils”.

As for `COc1cc(/C=C/c2ccc(-c3ccc(N(C)C)cc3)s2)cc(CN2CCN(C)CCN(C)CC2)c1O` [ZY-5-OMe], in series [1], the pH-dependent lipophilicity (logD) turned out to be 1.18 ± 0.046. Besides, the “toxicity towards SH-SY5Y cells (in words)” value in series [2] is on record as “not toxic towards SH-SY5Y cells”. Further, in series [3], the Kd worked out at 680 nM and the “binding ratio, Fibrils” value was 5.6. For the same compound, in series [4], the Kd was 1040 nM and the “binding ratio, Oligomers” value came to 4.0.

`CN1CCN(C)CCN(Cc2cc(/C=C/c3ccc(-c4ccc(C=O)cc4)s3)ccc2O)CC1` [ZY-15-MT] returned a logD in series [1] of 1.11 ± 0.021. In addition, in series [2], the “toxicity towards SH-SY5Y cells (in words)” value was “not toxic towards SH-SY5Y cells”. In addition, in series [3], the Kd turned out to be 530 nM and the “binding ratio, Fibrils” value stood at 10.0. Moreover, in series [4], the Kd amounted to 2030 nM and the “binding ratio, Oligomers” value was found to be 2.5.

With `CN1CCN(C)CCN(Cc2cc(-c3ccc(/C=C/c4ccc(N(C)C)cc4)s3)ccc2O)CC1` [ZY-12-MT], in series [1], the logD is 0.83 ± 0.035. For the same compound, the “toxicity towards SH-SY5Y cells (in words)” value in series [2] is reported as “not toxic towards SH-SY5Y cells”. Also, in series [3], the equilibrium dissociation constant (Kd) came out at 4190 nM and the “binding ratio, Fibrils” value amounted to 1.3. Besides, in series [4], the Kd was found to be 6270 nM and the “binding ratio, Oligomers” value was determined as 1.0.

As to `COc1cc(OC)cc(-c2ccc(/C=C/c3cc(CN4CCN(C)CCN(C)CC4)c(O)c(OC)c3)cc2)c1` [ZY-17-OMe], the logD in series [1] was found to be 0.732 ± 0.019. Besides, in series [3], the Kd came out at 180 nM and the “binding ratio, Fibrils” value came to 21.9. Besides, in series [4], the Kd was 120 nM; the “binding ratio, Oligomers” value turned out to be 46.7; the “binding preference oligomers vs fibrils” value is recorded as “higher binding affinity to oligomers over fibrils”.

In series [1], `COc1cc(OC)cc(-c2ccc(/C=C/c3cc(CN4CCN(C)CCN(C)CC4)c(O)c(CN4CCN(C)CCN(C)CC4)c3)cc2)c1` [ZY-17-DT] showed a logD of 0.606 ± 0.032. In series [3], the dissociation constant (Kd) amounted to 2250 nM and the “binding ratio, Fibrils” value is 1.1. Besides, in series [4], the equilibrium dissociation constant (Kd) was determined as 1030 nM; the “binding ratio, Oligomers” value was found to be 33.3; the “binding preference oligomers vs fibrils” value was “higher binding affinity to oligomers over fibrils”.
